Test results published in patent US4937232A, “Inhibition of protein kinase C by long-chain bases” (priority 1988, dated 1990).
Read-outs that look alike come from different tables or passages of the source. One block for each compound: values may come before it.

Tests used:
HL-60 cells [1] = assay: PMA-induced adherence (attachment) of HL-60 cells; format: cell-based, human; details: for Adherent cells (%): 72 h; for IC50: Homo sapiens
Procedure: Cells were centrifuged at 600 g for 3 min, and added at 1×10^5 cells per well in 12-well culture dishes. Medium, PMA, and long-chain bases (prepared as the 1:1 molar complex with fatty acid-free bovine serum albumin) at the indicated concentrations were added for a total volume of 2.0 ml. After the desired times, the cells in suspension were counted and checked for viability (trypan blue exclusion) with a hemacytometer. The attached cells were quantitated by measuring DNA content according to the method of West et al (Anal. Biochem., 147, 289-295, 1985) and by assaying for acid phosphatase according to the method of Schnyder (J. Exp. Med., 148, 434-445, 1978).

neutrophils = assay: Cell association of radiolabeled sphinganine with neutrophils; format: in vitro ADME, human; details: 3, 10, 30 μM plus albumin carrier, 2.5×10^6 cells, 5 min
Procedure: To determine how much inhibitor was actually becoming associated with the cells, radiolabeled sphinganine (3, 10, 30 μM) plus albumin carrier was incubated with neutrophils (2.5×10^6 cells) for 5 min (i.e. a time longer than that needed to achieve inhibition). After washing by centrifugation, the cell-associated radioactivity was measured. Approximately 20% of the added sphinganine became cell-associated. Therefore, because of partitioning between the albumin and the cells, the cellular concentration of sphinganine was considerably less than the total.

HL-60 cells [2] = assay: Dioctanoylglycerol-induced attachment of HL-60 cells; format: cell-based; details: Homo sapiens
Procedure: When 1,2-dioctanoylglycerol was used, the cells were treated essentially as described by Ebling et al Proc. Natl. Acad. Sci. U.S.A. 82, 815-819, 1985. Sphinganine was added to the cells, then dioctanoylglycerol in 1 μl of ethanol to yield 100 μM, followed by additional maintenance additions of 20 μm diacylglycerol every 2 h for 12 h.

human neutrophils = assay: Oxygen consumption (oxidative burst) of human neutrophils; format: cell-based; details: for IC50: Homo sapiens, Neutrophil
From the text: Human neutrophils were obtained by continuous flow leukapheresis from normal adults. Residual erythrocytes were removed by hypotonic lysis with a resulting purity of >95% neutrophils. Alternatively peripheral blood was obtained by phlebotomy and neutrophils were isolated by HESPAN (6% Hetastarch, 0.9% NaCl) sedimentaion of erythrocytes, centrifugation through lymphocyte separation medium (9.4% sodium diatrizoate, 6.2% Ficoll), and hypotonic lysis of residual erythrocytes. Isolated cells were resuspended in phosphate buffered saline (PBS)-glucose, containing 0.6 mM CaCl2, 2.6 mM KCl, 1.5 mM KH2 PO4, 0.5 mM MgCl2, 136 mM NaCl, 8 mM Na2 HPO4, 5.5 mM glucose.
Oxygen consumption was measured using a Clark-type electrode with YSI model 53 oxygen monitor. Assays were conducted at 37° C. with 6.5×10^6 cells per ml with a total volume of either 2.5 ml or 4 ml. Effectors were injected into the electrode chamber using a Hamilton syringe. Initial slopes after the addition of the stimuli were used for rate calculations. For activators with a lag prior to the onset of the oxidative burst, maximal rates following the lag were used.

HL-60 cells [3] = assay: [3-3H]sphinganine uptake and metabolism by HL-60 cells; format: in vitro ADME, human
Procedure: Approximately 1×10^6 HL-60 cells in 1 ml of medium were mixed with an equal volume of medium containing 2.5 μm [3-^3 H]sphinganine (equimolar with BSA). After varying time intervals, an aliquot of the cells was removed and counted and a portion was extracted as described below. The extracts were applied to Silica gel H plates and developed in CHCl3 :methanol: 2N NH4 OH (40:10:1, v/v/v), air dried, sprayed with Amplify (Amersham), and subjected to fluorography.

[4] = Neutrophil viability (Trypan Blue exclusion, LDH release); format: cell-based; details: human, neutrophils, 50 μM sphinganine, 1.2×10^7 cells/ml
Procedure: Cell viability was assessed by two criteria: Trypan Blue exclusion and release of the cytosolic enzyme, lactate dehydrogenase (LDH). LDH activity was monitored by following the oxidation of NADH at 340 nm. […] Trypan Blue exclusion was determined microscopically.

protein kinase C [5] = assay: Triton X-100 mixed micellar assay for protein kinase C activity; format: biochemical, rat; details: for inhibition of protein kinase C (specificity): mixed micellar assay
Procedure: Protein kinase C was partially purified from rat brain as described by Hanrun et al (J. Biol. Chem., 260, 10043, 1985), which is hereby incorporated by reference.
Protein kinase C was assayed with Triton X-100 mixed micelles as described by Hanrun et al, (ibid.), Sphingosine was dried down with the lipid cofactors.

[6] = tested on: protein kinase C-induced phosphorylation of the 40 KDa polypeptide; assay: 40K (40 kDa) protein phosphorylation in human platelets; format: cell-based
Procedure: They were then suspended in modified Tyrode's buffer to a concentration of 2.5×10^8 platelets/ml.
^32 Pi at 0.2 mCi/ml was added to the platelet suspension and labelling was allowed to proceed for 75 minutes at 37° C., after which the platelets were pelleted at 600×g for 10 minutes and resuspended in Tyrode's buffer to the same concentration. They were then aliquoted in Eppendorf microfuge tubes and preincubated at 37° C. for 5 minutes with the varying concentrations of sphingosine. Platelets were then stimulated with either 5 μM dioctanoylglycerol (added as an ethanol solution with the final concentration of ethanol 0.5%), 10 μM TPA, or 1 unit/ml thrombin. The reactions were stopped after 30 seconds by the addition of an equal volume of 2× sample buffer, and the samples were then boiled for 3 minutes. […] Gels were subsequently fixed in water/methanol/acetic acid (60:30:10), dried, and autoradiographed.

protein kinase C [7] = assay: [3H]PDBu binding to protein kinase C in mixed micelles; design: species or system rat; details: 16 and 20 mol % PS
Procedure: [^3 H]PDBu binding was performed as previously described (26).

[8] = oxidative burst, PMA activation, read-out: Concentration required for 50% inhibition

IC50 (HL-60 cells [1]; HL-60, 8 nM PMA, read-out: 50% inhibition of PMA-induced attachment): 3 µM | added sphinganine that became cell-associated (neutrophils): Approximately 20% | IC50 (HL-60 cells [2]; 100 μM dioctanoylglycerol, maintenance doses 20 μM every 2 h, read-out: concentration reducing dioctanoylglycerol-induced adherence by 50%): ~5 µM | IC50 (human neutrophils; activator PMA, read-out: half maximal inhibition of oxygen consumption): 6.7 µM | IC50 (human neutrophils; activator dioctanoylglycerol, read-out: half maximal inhibition of oxygen consumption): 7.4 µM | IC50 (human neutrophils; activator opsonized zymosan, read-out: half maximal inhibition of oxygen consumption): 5.6 µM | IC50 (human neutrophils; approximately 7.5×10^6 cells/ml, read-out: concentration for 50% inhibition, oxygen consumption assay): 6 to 8 µM | IC50 (human neutrophils; [8]): 7 µM | time in which approximately half of the sphinganine was taken up from the medium by the cells (HL-60 cells [3]; [3H]sphinganine, HL-60 cells, 37°): ≤ 6 h | free [3H]sphinganine associated with the cells (HL-60 cells [3]; day 2): 0.07 nmol | free [3H]sphinganine associated with the cells (HL-60 cells [3]; day 3): 0.06 nmol | inhibition of protein kinase C (specificity) (protein kinase C [5]): inhibitors
Compound: CCCCCCCCCCCCCCC[C@@H](O)[C@@H](N)CO (relative stereo) [Sphinganine, erythro-dihydrosphingosine]
% Adherence (HL-60 cells [1]; 8 nM PMA + 1 μM sphinganine, 24 h): 26% | % Adherence (HL-60 cells [1]; 8 nM PMA + 1 μM sphinganine, 24 h, listed as Sa): 25.5 ± 7.7% | Adherence (HL-60 cells [1]; 8 nM PMA + 2.5 μM sphinganine): 17.6±6.4% | Adherence (HL-60 cells [1]; 8 nM PMA + 5 μM sphinganine): 15.0±2.1% | number of adherent cells (HL-60 cells [1]; 8 nM PMA plus 1 μM sphinganine, 24 h): 0.51 ×10^5 | Adherent cells (%) (HL-60 cells [1]; 8 nM PMA, 1 μM sphinganine): 85% | Adherent cells (%) (HL-60 cells [1]; 8 nM PMA, 2.5 μM sphinganine): 74% | Adherent cells (%) (HL-60 cells [1]; 8 nM PMA, 5 μM sphinganine): 70% | % Adherence (HL-60 cells [1]; 1 μM sphinganine, no PMA, 24 h): 3.7 ± 0.7% | Adherent cells (%) (HL-60 cells [1]; No PMA, 1 μM sphinganine): 9% | Adherent cells (%) (HL-60 cells [1]; No PMA, 2.5 μM sphinganine): 11% | Adherent cells (%) (HL-60 cells [1]; No PMA, 5 μM sphinganine): 6% | activity at 1 µM (HL-60 cells [2]; 1.0 μM sphinganine, compared to cells treated with diacylglycerol only, read-out: % Viable cells attached): 70 ± 32% | activity at 2.5 µM (HL-60 cells [2]; 2.5 μM sphinganine, compared to cells treated with diacylglycerol only, read-out: % Viable cells attached): 63 ± 21% | activity at 5 µM (HL-60 cells [2]; 5.0 μM sphinganine, compared to cells treated with diacylglycerol only, read-out: % Viable cells attached): 50 ± 25% | PMA-induced oxygen consumption after washing out sphinganine (human neutrophils; 40 μM sphinganine 5-10 min, then washed twice with 50 μM fatty acid-free BSA): 3.7 nmols/min/10^6 cells | RATE of oxygen consumption, SPHINGANINE (human neutrophils; 50 μM sphinganine 3 min before Arachidonate (83 μM)): 0.2 nmols O2 consumed/min/10^6 cells | RATE of oxygen consumption, SPHINGANINE (human neutrophils; 50 μM sphinganine 3 min before Dioctanoyl Glycerol (100 μM)): 0.3 nmols O2 consumed/min/10^6 cells | RATE of oxygen consumption, SPHINGANINE (human neutrophils; 50 μM sphinganine 3 min before FMLP (0.5 μM) + Cytochalasin B (5 μg/ml)): 0.3 nmols O2 consumed/min/10^6 cells | RATE of oxygen consumption, SPHINGANINE (human neutrophils; 50 μM sphinganine 3 min before Opsonized zymosan (30 μg/ml)): 0.3 nmols O2 consumed/min/10^6 cells | RATE of oxygen consumption, SPHINGANINE (human neutrophils; 50 μM sphinganine 3 min before Phorbol Myristate Acetate (1 μM)): 0.2 nmols O2 consumed/min/10^6 cells | activation of the oxidative burst by A23187 (human neutrophils; preliminary studies): blocked | viability at 50 µM ([4]; read-out: cellular LDH retained): > 96% | viability at 50 µM ([4]; read-out: viability by Trypan Blue exclusion): > 95%

Compound: CCCCCCCCCCCCC/C=C/[C@@H](O)[C@@H](N)CO [sphingosine]
IC50 (HL-60 cells [1]; HL-60, read-out: 50% inhibition of PMA-induced attachment): 1 µM | inhibition of thrombin-induced 40K phosphorylation ([6]; 25 μM sphingosine): nearly complete inhibition | inhibition of thrombin-induced 40K phosphorylation ([6]; concentrations as low as 10 μM): Partial inhibition | inhibition of TPA and diC8-induced 40K phosphorylation ([6]; data not shown): inhibited | sphingosine required for complete inhibition (mol % sphingosine:phospholipids) ([6]; platelet 40K phosphorylation, similar to in vitro inhibition of protein kinase C): 3-5 mol % | IC50 (human neutrophils; [8]): 9 µM | Hill number of the PS dependence of protein kinase C activation (protein kinase C [5]; 2 mol % sphingosine): 6.9 | Hill number of the PS dependence of protein kinase C activation (protein kinase C [5]; 4 mol % sphingosine): 8.8 | type of inhibition with respect to diC18:1 (protein kinase C [5]; 6 mol % PS, 50 μM Ca2+, double reciprocal plots): competitive | IC50 (protein kinase C [5]; Triton X-100 mixed micelles, 6 mol % PS, 2 mol % diC18:1, read-out: 50% inhibition of protein kinase C activity): 100 µM | type of inhibition with respect to phorbol dibutyrate (protein kinase C [5]; double reciprocal plots): competitive inhibition | type of inhibition with respect to Ca2+ (protein kinase C [5]; fixed PS and diC18:1, 3 and 4 mol % sphingosine): appeared competitive | inhibition of protein kinase C (specificity) (protein kinase C [5]): potent and reversible inhibitor | inhibition of phorbol-ester binding to mixed micelles (protein kinase C [7]): inhibited
